Results on ten substances are retold here after patent US6965013B2, “Intermedin and its uses” (The Board of Trustees of the Leland Stanford Junior …, priority 2002, dated 2005).

Ends that are not written are not given here.

The subject of experiment [1] is spontaneously hypertensive rats (SHR). As to the kind of experiment: Blood pressure in spontaneously hypertensive rats (tail-cuff). It counts as in vivo, rat. The settings on record: male SHR, FIG. 6D; for blockage of the hypotensive effects of IMDL: cotreatment with IMDL. The method, then:
(§1) Effects of intermedin on blood pressure and heart rate in normal and hypertensive rats. Blood pressure measurements in conscious male Sprague-Dawley rats and spontaneously hypertensive rats (SHR)(7-9 weeks of age) were made in animals preadapted to the measurement procedure. Indirect systolic pressure was determined by a programmable NIBP system using the tail-cuff method (Columbus Instruments, Columbus, Ohio). Following attachment of the pressure transducer, rats were left undisturbed for 10 min before baseline measurements that spanned a 15-min interval. Following baseline measurements, rats were injected intraperitoneally with varying doses of hormones. Blood pressure and heart rate were monitored for 40 min at 20-sec intervals. Changes in blood pressure were calculated as the average of thirty measurements performed within each 10-min interval.

The next experiment concerns male Sprague-Dawley rats. Kind of experiment: Blood pressure and heart rate in normal rats (tail-cuff). It counts as in vivo, rat. The settings on record: for blockage of the hypotensive effect of IMDL: male Sprague-Dawley rats, cotreatment with IMDL, CGRP8-37 in 20-fold excess, FIG. 6C; for systolic blood pressure / heart rate: conscious male Sprague-Dawley rats, intraperitoneal; for systolic blood pressure: monitored 40 min, FIGS. 6A, 6C; for heart rate: FIG. 6B. As to the method: as §1

Experiment [2] addresses T1, SK-N-MC cells expressing endogenous CRLR (CGRP receptor) (Homo sapiens, UniProt O60894+Q16602).
T1 construct: expressing endogenous CRLR; host or cells: SK-N-MC human neuroblastoma cells
Kind of experiment: Stimulation of cAMP production in SK-N-MC cells. It counts as cell-based. The conditions noted are these: 30 min treatment, 2.5 mM IBMX, FIG. 2A. As to the method: (§2) Human neuroblastoma SK-N-MC and rat L6 skeletal myoblast cells expressing endogenous CRLR were obtained from American Type Culture Collection. To estimate adenylyl cyclase activation, SK-N-MC and L6 cells (2×10^5 viable cells/well) were plated in 24-well culture dishes in DMEM/F12 medium one day before treatment. Following 2 h incubation in serum-free DMEM/F12 medium, cells were treated with testing reagents for 30 min in medium containing 0.1% BSA and 2.5 mM 3-isobutyl-1-methylxanthine (IBMX, Sigma-Aldrich Corp.) to prevent hydrolysis of cAMP by phosphodiesterases. Following treatment, cells were lysed and cAMP content determined by a specific radioimmunoassay.
A general note: Cyclic AMP is a second messenger, typically raised through Gs and lowered through Gi signalling.

Experiment [3] deals with T2, L6 skeletal myoblast cells expressing endogenous CRLR (CGRP receptor) (Rattus norvegicus, UniProt Q63118+Q9JJ74).
T2 construct: expressing endogenous CRLR; host or cells: L6 rat skeletal myoblast cells
T2 sequence (Q63118 24-464): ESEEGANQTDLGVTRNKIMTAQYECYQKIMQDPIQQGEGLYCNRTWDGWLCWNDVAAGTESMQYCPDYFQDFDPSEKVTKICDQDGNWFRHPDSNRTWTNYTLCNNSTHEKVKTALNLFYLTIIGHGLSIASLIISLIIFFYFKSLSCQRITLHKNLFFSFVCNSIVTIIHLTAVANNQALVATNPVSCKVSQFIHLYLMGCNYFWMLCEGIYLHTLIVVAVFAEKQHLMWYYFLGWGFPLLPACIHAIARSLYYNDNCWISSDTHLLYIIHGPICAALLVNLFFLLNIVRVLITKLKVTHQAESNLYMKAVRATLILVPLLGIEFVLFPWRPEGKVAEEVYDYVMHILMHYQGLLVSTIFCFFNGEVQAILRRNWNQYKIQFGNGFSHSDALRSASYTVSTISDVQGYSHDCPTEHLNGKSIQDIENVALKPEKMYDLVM
T2 sequence (Q9JJ74 27-148 partner): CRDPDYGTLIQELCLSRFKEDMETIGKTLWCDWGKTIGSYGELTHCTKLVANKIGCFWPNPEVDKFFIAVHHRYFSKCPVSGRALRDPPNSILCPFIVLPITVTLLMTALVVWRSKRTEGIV
As to the kind of experiment: Stimulation of cAMP production in L6 cells. It counts as cell-based. The settings on record: for cAMP production: 30 min treatment, 2.5 mM IBMX, FIG. 2B. The method, then:
as §2

The target in experiment [4] is T3, CGRP receptor (CRLR) on intact L6 cells (Rattus norvegicus, UniProt Q63118+Q9JJ74).
T3 construct: expressing endogenous CRLR; host or cells: L6 rat skeletal myoblast cells
T3 sequence (Q63118 24-464): as the sequence (Q63118 24-464) above
T3 sequence (Q9JJ74 27-148 partner): as the sequence (Q9JJ74 27-148 partner) above
As to the kind of experiment: Receptor-binding assay, displacement of 125I-CGRP from L6 cells. The conditions noted are these: 37C, 2 h, FIG. 2F. The method, then:
Receptor-binding assay. Ligand-binding assays were done in siliconized microfuge tubes at 37C for 2 h. […] After a 2 h incubation at 37C, the cell-associated ligand was estimated. Radioactivity was determined using a γ-counter (EG&G Wallace, Gaithersburg, Md.).

Experiment [5] relates to C57/BL6 male mice. Kind of experiment: Cumulative food intake in fasted mice. The format is in vivo, mouse. The conditions noted are these: mice fasted 20 h, intraperitoneal 100 nM/Kg, 1, 2 and 4 h after treatment, FIG. 7. As to the method: Analysis of ingestive behavior. Eight-week-old C57/BL6 male mice were housed individually in a regulated environment. Before intraperitoneal injection with testing reagents, mice were deprived of food for 20 h with free access to water. Food intake was measured by placing preweighed pellets in the cage and weighing uneaten pellets at 1, 2, and 4 h after treatment.

Experiment [6] has as its system C57/BL6 male mice. As to the kind of experiment: Gastric emptying activity in mice. The format is in vivo, mouse. The settings on record: intraperitoneal 100 nM/Kg, 90 min after hormone treatment, FIG. 8. As to the method:
Effects of intermedin on gastric emptying activity. Eight-week-old C57/BL6 male mice deprived of food for 20 h were given food pellets for 90 min before intraperitoneal injection with different hormones or saline. After treatment, mice were deprived of food again and killed 90 min later. The stomach was excised at the pylorus and cardia before weighing. Gastric emptying was calculated by comparing the stomach weight of treated mice to the stomach weight of control mice killed at the time of hormone injection.

For experiment [7] the following is noted: humans, administration of ADM, earlier studies; cited from earlier work.
In experiment [8] the target is T4, endogenous calcitonin receptor (Homo sapiens, UniProt P30988).
T4 construct: through the endogenous calcitonin receptor; endogenous in cells; host or cells: HEK293T
T4 sequence (P30988 25-474): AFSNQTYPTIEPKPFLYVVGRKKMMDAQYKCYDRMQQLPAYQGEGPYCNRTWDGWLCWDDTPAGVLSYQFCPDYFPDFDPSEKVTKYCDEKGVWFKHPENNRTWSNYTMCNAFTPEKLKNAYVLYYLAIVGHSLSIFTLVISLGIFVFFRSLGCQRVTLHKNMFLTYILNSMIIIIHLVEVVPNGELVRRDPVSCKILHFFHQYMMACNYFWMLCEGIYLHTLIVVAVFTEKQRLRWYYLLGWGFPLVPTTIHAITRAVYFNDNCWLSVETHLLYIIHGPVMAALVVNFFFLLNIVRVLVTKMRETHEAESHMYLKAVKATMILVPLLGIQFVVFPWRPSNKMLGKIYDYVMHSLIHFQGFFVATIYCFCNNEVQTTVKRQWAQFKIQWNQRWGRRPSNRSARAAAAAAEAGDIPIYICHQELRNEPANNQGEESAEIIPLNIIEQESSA
As to the kind of experiment: cAMP production in 293T cells via the endogenous calcitonin receptor. The format is cell-based. The settings on record: FIG. 3A.

T1 sequence (Q16602 23-461): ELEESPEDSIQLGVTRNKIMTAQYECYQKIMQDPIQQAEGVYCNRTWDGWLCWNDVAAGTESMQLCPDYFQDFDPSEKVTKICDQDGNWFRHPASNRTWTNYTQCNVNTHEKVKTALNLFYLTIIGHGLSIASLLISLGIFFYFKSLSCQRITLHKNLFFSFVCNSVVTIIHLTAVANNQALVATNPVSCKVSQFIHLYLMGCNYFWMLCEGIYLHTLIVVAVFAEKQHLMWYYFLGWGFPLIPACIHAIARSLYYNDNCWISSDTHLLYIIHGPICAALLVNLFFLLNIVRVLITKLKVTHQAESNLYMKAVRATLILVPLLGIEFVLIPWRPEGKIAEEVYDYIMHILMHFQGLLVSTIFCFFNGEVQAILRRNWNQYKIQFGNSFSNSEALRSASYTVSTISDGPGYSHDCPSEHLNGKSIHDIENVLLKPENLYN
T1 sequence (O60894 27-148 partner): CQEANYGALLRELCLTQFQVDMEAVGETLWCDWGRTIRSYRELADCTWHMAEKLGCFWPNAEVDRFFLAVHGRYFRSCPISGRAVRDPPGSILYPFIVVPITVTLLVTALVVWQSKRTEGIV

For “ADM22-52: low affinity ADM22-52 fragment (TVQKLAHQIYQFTDKDKDNVAPRSKISPQGY; ends and bridges not checked; UniProt P35318 116-146, looked up, fragment)”, in experiment [1], the “blockage of the hypotensive effects of IMDL” value was “minimal effect”.
“CGRP8-37: N-terminally truncated CGRP, a CGRP receptor antagonist (VTHRLAGLLSRSGGVVKNNFVPTNVGSKAF; ends and bridges not checked; UniProt P06881 90-119, looked up, fragment) [reference compound]”: the “blockage of the hypotensive effect of IMDL” value with male Sprague-Dawley rats is “significantly decreased the hypotensive effects of IMDL”. The “blockage of the hypotensive effects of IMDL” value in experiment [1] was “abolished”.
With “IMD17-47: truncated amidated intermedin fragment, putative C-terminal receptor-binding domain (VQNLSHRLWQLMGPAGRQDSAPVDPSSPHSY-NH2)”, in the experiment with male Sprague-Dawley rats, the systolic blood pressure result was “no effect” and the “blockage of the hypotensive effect of IMDL” value is reported as “blocked the hypotensive effects of IMDL”. For the same substance, the cAMP production entry in [2] was “no effect”. For the same substance, the cAMP production result in experiment [3] is “no effect”. In experiment [3] (cotreatment with intermedin, IMD17-47 at 1 μM, FIGS. 2C, 2D), the “blockage of the stimulatory effect of intermedin on cAMP production” value is given as “functional antagonist of intermedin action”.
Regarding “IMDL: 47-amino-acid amidated mature human intermedin peptide, SEQ ID NO:5 residues 1-47”, in the experiment with male Sprague-Dawley rats, the heart rate result was “increased heart rate” and the systolic blood pressure result is “dose-dependently suppressed blood pressure”. Further, the cAMP production result in [3] is on record as “dose-dependent increases of cAMP production”. Moreover, the “competitive displacement of 125I-CGRP binding” value in [4] is “displaced ^125I-CGRP binding”. In addition, in the experiment with C57/BL6 male mice [5], the cumulative food intake result was “decreased food intake”. For the same substance, the gastric emptying activity result in the experiment on C57/BL6 male mice [6] is given as “Reduction of gastric emptying”. The blood pressure entry in [1] (intraperitoneal) was “reduced blood pressure”.
Consider “IMDS: 40-amino-acid amidated mature human intermedin peptide, SEQ ID NO:5 residues 8-47”, for which, in the experiment on male Sprague-Dawley rats, the heart rate result is reported as “increased heart rate” and the systolic blood pressure entry is “dose-dependently suppressed blood pressure”. The cAMP production result in experiment [3] is listed as “dose-dependent increases of cAMP production”. Moreover, the “competitive displacement of 125I-CGRP binding” value in experiment [4] is given as “displaced ^125I-CGRP binding”. In addition, the cumulative food intake result in the experiment on C57/BL6 male mice [5] is on record as “decreased food intake”. Also, the gastric emptying activity result in the experiment with C57/BL6 male mice [6] is recorded as “Reduction of gastric emptying”.
“SRP/urocortin II: type II CRH receptor-selective agonist, known gastric emptying suppression peptide (IVLSLDVPIGLLQILLEQARARAAREQATTNARILARVGHC; Urocortin-2; UniProt Q96RP3 72-112, looked up) [reference compound]”: the cumulative food intake result in the experiment with C57/BL6 male mice [5] is on record as “decreased food intake”. Moreover, in the experiment with C57/BL6 male mice [6], the gastric emptying activity result is given as “Reduction of gastric emptying”.
Consider “adrenomedullin [ADM, reference compound]”, for which, in the experiment with male Sprague-Dawley rats, the heart rate result is listed as “Increase in heart rate” and the systolic blood pressure entry is “dose-dependently suppressed systolic blood pressure”. The circulating prolactin levels entry in experiment [7] was “increases circulating prolactin levels”. The cAMP production entry in [3] was “stimulated cAMP production”. Besides, the cumulative food intake result in the experiment with C57/BL6 male mice [5] is recorded as “decreased food intake”. In addition, the gastric emptying activity entry in the experiment on C57/BL6 male mice [6] is reported as “suppressed the gastric emptying activity, but with a lower potency”.
calcitonin: in [8], the cAMP production result is listed as “increases cAMP dose-dependently”.
For the substance “nonamidated form of intermedin: nonamidated form of the synthetic intermedin peptide”, the cAMP production result in [3] is “no effect”.
“prointermedin55-85: 31-amino-acid peptide from the prepro-region of human intermedin (PRPVVWKLHRALQAQRGAGLAPVMGQPLRDG; pro-form; UniProt Q7Z4H4 55-85, looked up, fragment)”: the systolic blood pressure entry in the experiment on male Sprague-Dawley rats is given as “no effect”. The cAMP production entry in experiment [2] and in [3] was “no effect” in each case.
